Consider three molecules from patent US20240360194A1, “New Peptides as Potent and Selective GIP Receptor Agonists” (Sanofi, priority 2021, published 2024).

Series [1] deals with T1, human GIP receptor (hGIPR) (Homo sapiens, UniProt P48546).
T1 sequence (P48546 22-466): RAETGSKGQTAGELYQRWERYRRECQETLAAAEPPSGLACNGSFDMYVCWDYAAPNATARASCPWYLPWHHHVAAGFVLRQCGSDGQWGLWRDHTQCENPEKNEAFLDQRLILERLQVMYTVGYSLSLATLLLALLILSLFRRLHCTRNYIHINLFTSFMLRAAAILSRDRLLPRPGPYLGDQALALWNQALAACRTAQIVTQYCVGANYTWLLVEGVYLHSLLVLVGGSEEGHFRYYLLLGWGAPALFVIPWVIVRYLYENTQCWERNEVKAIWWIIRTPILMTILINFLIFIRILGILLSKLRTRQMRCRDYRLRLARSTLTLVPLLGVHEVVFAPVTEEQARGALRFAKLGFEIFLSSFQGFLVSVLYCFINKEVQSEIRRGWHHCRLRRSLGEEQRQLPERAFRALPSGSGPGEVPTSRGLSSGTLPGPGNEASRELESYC
The experiment in a line: Binding assay, displacement of [125I]GIP from HEK-293 membranes over-expressing GIPR (SPA). As to conditions: [125I]GIP displacement. Here is the method:
(1) Preparation of Membranes from HEK-293 Cells Over-Expressing GIPR or GLP-1R
HEK-293 cells recombinantly over-expressing GIPR or GLP-1R were grown to 50% confluency, washed with warm 1×PBS (Gibco) and detached in HEPES/EDTA-buffer (100 mM HEPES pH 7.5, 5 mM EDTA). Cells were harvested by centrifugation at 4° C. and 3000×g and the pellets were stored at −80° C. until further processing.
After thawing on ice, pellets were resuspended in HEPES/EDTA-buffer and homogenized on ice for 1 min using Ultra-Turray T25. After subsequent sonification the cell debris was removed by centrifugation at 1000×g and 4° C. Supernatants were then ultra-centrifuged at 100000×g and 4° C. under vacuum for 30 min. Pellets were resuspended in HEPES/EDTA/NaCl-buffer (20 mM HEPES, 1 mM EDTA, 150 mM NaCl; add 1 Complete Mini Protease inhibitor cocktail to 10 ml buffer) and protein content was determined via BCA-Protein assay.
(2) Measurement of Binding Activity of Test Compounds to Human GIPR or GLP-1R

Series [2] can be described thus: Solubility assessment (UHPLC-UV of supernatant, target 10 mg/ml). It is filed as physicochemical. The procedure: Prior to the solubility measurement of a peptide batch, its purity was determined through UHPLC/MS.
Therefore, solutions from solid samples were prepared in a buffer system with a concentration of 10 mg/ml compound based on the previously determined % purity: • Solubility buffer system A) 100 mM phosphate buffer pH 7.4 • Solubility buffer system B) 8 mM phosphate buffer pH 7.4, 14 mg/ml propylene glycol, 5.5 mg/ml phenol • Solubility buffer system C) 100 mM phosphate buffer pH 7.4, 2.7 mg/ml m-cresol
UHPLC-UV was performed after 1 h of gentle agitation and storage at 5° C. overnight (24 h) from the supernatant, which was obtained after 15 min of centrifugation at 2500 RCF (relative centrifugal acceleration).
The different UV extinction coefficients of sample and reference peptide were calculated based on the different amino acid sequences and considered in the concentration calculation.
The analytical method used was Analytical UHPLC Method A.
Peptide samples were prepared in solubility buffer system A or C and solubility was assessed as described in Methods.

Series [3] deals with human GLP-1 receptor (hGLP-1R) (Homo sapiens, UniProt P43220). The experiment in a line: In vitro cellular cAMP assay for GLP-1 receptor efficacy (HEK-293 cell line over-expressing receptor). It is filed as cell-based. The conditions noted are these: HEK-293, 0.1% BSA. In general terms: Changes in cAMP serve as a functional read-out for many G protein-coupled receptors.
Series [4] deals with T2, human GIP receptor (Homo sapiens, UniProt P48546).
T2 construct: human adipocytes endogenously expressing the human GIP receptor; host or cells: human preadipocytes (Lonza) differentiated to adipocytes
T2 sequence (P48546 22-466): T1 sequence (P48546 22-466)
The experiment in a line: In vitro cellular cAMP assay for GIP receptor efficacy (human adipocytes). The conditions noted are these: for Emax: read-out: hGIPR Emax. It is filed as cell-based. The procedure: For this, one vial of human preadipocytes (˜10^6 cells; Lonza) was thawed in a T-75 cell culture dish. The cells were cultivated at 37° C., 5% CO2, 95% humidity in Preadipocyte Growth Medium with Supplement Mix from Promo Cell.
After 3 days, the cells were washed with PBS and 1.5 ml Trypsin, incubated for 4 min, then resuspended in medium, centrifugated for 10 min @ 300 rcf RT, resuspended again and distributed to four T-75 cell culture dishes. Again, the cells were cultivated at 37° C., 5% CO2, 95% humidity.
After 5 days, the cells were washed with PBS and 1.5 ml Trypsin, incubated for 4 min, then resuspended in medium, centrifugated for 10 min @ 300 rcf RT, resuspended again and sawn in T-75 dishes (2.5×10^6 cells per dish) in 15 ml Differentiation medium each.
The differentiation medium had the following composition: DMEM (Gibco), Ham's F10 (Gibco), 15 mM HEPES (Gibco), 3% FCS (PAA), 33 μM biotin (Sigma-Aldrich), 17 μM Pantothenate (Sigma-Aldrich), 0.1 μM human insulin (Sigma-Aldrich), 1 μM dexamethason (Sigma-Aldrich), 0.1 μM PPARgamma agonist (#R2408, Sigma-Aldrich), 0.6×Anti-Anti (#15240, ThermoFisher), 200 μM IBMX (AppliChem), and 0.01 μM L-thyroxine (Sigma-Aldrich).
After 6 days of differentiation, 5000 cells per well were dispensed on a 96-well plate (#CLS3694 from Corning®, Sigma-Aldrich). For measurement of cAMP generation, 25 μL of test compound was added to each well of the 96-well plate, followed by incubation for 30 min at room temperature.
The cAMP generated following test compound stimulation was determined using a kit from Cisbio Corp. based on HTRF (Homogenous Time Resolved Fluorescence). The cAMP assay was performed according to manufacturer's instructions (Cisbio).
The cAMP content of cells was determined using a kit from Cisbio Corp. based on HTRF (Homogenous Time Resolved Fluorescence).
After addition of HTRF reagents diluted in lysis buffer (kit components), the plates were incubated for 1 h, followed by measurement of the fluorescence ratio at 665/620 nm.

Series [5] addresses T3, human GIP receptor (human, UniProt P48546 22-466).
T3 sequence (looked up): T1 sequence (P48546 22-466)
In words: cell-based or functional assay.

≈ marks a conversion by molar mass, not a printed value. Numbered stars: 1 amine (or outer) side, 2 acyl side, 3 side chain; on linkers, the order of the positions; unused ones are H or OH. Square brackets hold non-standard residues; d marks the D form. Side chains are listed from the residue outwards. Ends that are not written are not given here. Peptide text beside a SMILES is read from it. * marks the point of attachment. ξ: configuration not given here. C18 diacid = O=C(O)CCCCCCCCCCCCCCCCC(=O)*; γGlu = O=C(O)[C@H](CCC(=O)[*:2])N[*:1]; tBuAla = CC(C)(C)C[C@H](N)C(=O)O; ξIva = CCC(C)(N)C(=O)O; AEEA = NCCOCCOCC(=O)O; Aib = CC(C)(N)C(=O)O

Chain of human GLP-1 receptor (hGLP-1R) (P43220 24-463): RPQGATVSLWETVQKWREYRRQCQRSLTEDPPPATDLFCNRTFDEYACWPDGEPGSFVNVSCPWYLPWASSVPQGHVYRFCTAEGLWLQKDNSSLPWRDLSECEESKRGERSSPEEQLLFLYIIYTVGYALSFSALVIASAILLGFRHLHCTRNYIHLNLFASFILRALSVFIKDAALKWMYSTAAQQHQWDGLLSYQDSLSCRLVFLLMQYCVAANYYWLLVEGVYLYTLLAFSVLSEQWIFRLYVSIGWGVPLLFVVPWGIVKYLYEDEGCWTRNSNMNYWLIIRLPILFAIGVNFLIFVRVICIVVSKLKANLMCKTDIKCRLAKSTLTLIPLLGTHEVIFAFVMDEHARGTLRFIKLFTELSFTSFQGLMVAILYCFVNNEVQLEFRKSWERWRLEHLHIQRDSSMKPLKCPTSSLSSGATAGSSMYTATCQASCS

As for `CC[C@H](C)[C@H](NC(=O)[C@H](Cc1ccccc1)NC(=O)[C@H](CCC(=O)O)NC(=O)[C@H](CCC(=O)O)NC(=O)[C@H](CCC(N)=O)NC(=O)[C@H](Cc1c[nH]cn1)NC(=O)[C@@H](NC(=O)[C@H](CCCNC(=N)N)NC(=O)[C@H](CC(=O)O)NC(=O)[C@H](CCCCNC(=O)COCCOCCNC(=O)COCCOCCNC(=O)CC[C@H](NC(=O)CCCCCCCCCCCCCCCCC(=O)O)C(=O)O)NC(=O)C(C)(C)NC(=O)[C@@H](NC(=O)[C@H](CO)NC(=O)[C@H](CC(C)C)NC(=O)[C@H](CC(=O)O)NC(=O)[C@H](CO)NC(=O)[C@@H](NC(=O)[C@H](Cc1ccccc1)NC(=O)[C@@H](NC(=O)CNC(=O)[C@H](CCC(=O)O)NC(=O)C(C)(C)NC(=O)[C@@H](N)Cc1ccc(O)cc1)[C@@H](C)O)[C@@H](C)CC)[C@@H](C)CC)[C@@H](C)CC)C(=O)N[C@@H](CCC(=O)O)C(=O)N[C@@H](Cc1c[nH]c2ccccc12)C(=O)N[C@@H](CC(C)C)C(=O)N[C@@H](CC(C)C)C(=O)N[C@@H](C)C(=O)N[C@@H](CCC(N)=O)C(=O)N[C@@H](CCC(=O)O)C(=O)N1CCC[C@H]1C(=O)N[C@@H](CO)C(=O)N[C@@H](CO)C(=O)NCC(=O)N[C@@H](C)C(=O)N1CCC[C@H]1C(=O)N1CCC[C@H]1C(=O)N1CCC[C@H]1C(=O)N[C@@H](CO)C(N)=O` [SEQ ID NO: 27, H2N-Y-Aib-E-G-T-F-I-S-D-L-S-I-Aib-K[{AEEA}2-gGlu-C18OH]-DRIHQEEFIEWLLAQEPSSGAPPPS-NH2] (H-Y[Aib]EGTFISDLSI[Aib]K([AEEA-AEEA-γGlu-C18 diacid])DRIHQEEFIEWLLAQEPSSGAPPPS-NH2), the IC50 (usually the point on the concentration scale where inhibition reaches its midpoint) in series [1] worked out at 700 pM. In addition, the Soluble amount in series [2] (24 h, pH 7.4) was >8.4 mg/mL. Also, the solubility (usually the dissolved amount per volume that the medium holds) at 24 h in series [2] (pH 7.4, Soluble amount) was > 9000 µg/mL. The EC50 – broadly, the midpoint of the concentration-response curve – in series [3] is > 10000 pM; in series [4] (read-out: hGIPR EC50), 600 pM. In addition, in series [4], the Emax (as a rule, the size of the effect at its maximum, as opposed to the concentration needed) amounted to 116%.

Consider `CC[C@H](C)[C@H](NC(=O)[C@H](Cc1ccccc1)NC(=O)[C@H](CCC(=O)O)NC(=O)[C@H](CCC(=O)O)NC(=O)[C@H](CCC(N)=O)NC(=O)[C@H](Cc1c[nH]cn1)NC(=O)[C@@H](NC(=O)[C@H](CCCNC(=N)N)NC(=O)[C@H](CC(=O)O)NC(=O)[C@H](CCCCNC(=O)COCCOCCNC(=O)COCCOCCNC(=O)CC[C@H](NC(=O)CCCCCCCCCCCCCCCCC(=O)O)C(=O)O)NC(=O)C(C)(C)NC(=O)[C@@H](NC(=O)[C@H](CO)NC(=O)[C@H](CC(C)C)NC(=O)[C@H](CC(=O)O)NC(=O)[C@H](CO)NC(=O)[C@@H](NC(=O)C(C)(CC)NC(=O)[C@@H](NC(=O)CNC(=O)[C@H](CCC(=O)O)NC(=O)C(C)(C)NC(=O)[C@@H](N)Cc1ccc(O)cc1)[C@@H](C)O)[C@@H](C)CC)[C@@H](C)CC)[C@@H](C)CC)C(=O)N[C@@H](CCC(=O)O)C(=O)N[C@@H](Cc1c[nH]c2ccccc12)C(=O)N[C@@H](CC(C)C)C(=O)N[C@@H](CC(C)C)C(=O)N[C@@H](C)C(=O)N[C@@H](CCC(N)=O)C(=O)NCC(=O)N1CCC[C@H]1C(=O)N[C@@H](CO)C(=O)N[C@@H](CO)C(=O)NCC(=O)N[C@@H](C)C(=O)N1CCC[C@H]1C(=O)N1CCC[C@H]1C(=O)N1CCC[C@H]1C(=O)N[C@@H](CO)C(N)=O` (stereo partly drawn) [SEQ ID NO: 24, H2N-Y-Aib-E-G-T-Iva-I-S-D-L-S-I-Aib-K[{AEEA}2-gGlu-C18OH]-DRIHQEEFIEWLLAQGPSSGAPPPS-NH2] (H-Y[Aib]EGT[ξIva]ISDLSI[Aib]K([AEEA-AEEA-γGlu-C18 diacid])DRIHQEEFIEWLLAQGPSSGAPPPS-NH2), for which the concentration in solution in series [2] (pH 7.4, Soluble amount) (solubility) was 7800 µg/mL (≈ 1570 µM). In series [4], the Emax worked out at 100%.

B1: SEQ ID NO: 33 (peptide)
peptide: Y[Aib]EGTFISDLSI[Aib]K([AEEA-AEEA-γGlu-C18 diacid])DRIHQEEFIEWL[tBuAla]AQGPSSGAPPPS-NH2
modifications: N-terminus assumed
SMILES: CC[C@H](C)[C@H](NC(=O)[C@H](Cc1ccccc1)NC(=O)[C@H](CCC(=O)O)NC(=O)[C@H](CCC(=O)O)NC(=O)[C@H](CCC(N)=O)NC(=O)[C@H](Cc1c[nH]cn1)NC(=O)[C@@H](NC(=O)[C@H](CCCNC(=N)N)NC(=O)[C@H](CC(=O)O)NC(=O)[C@H](CCCCNC(=O)COCCOCCNC(=O)COCCOCCNC(=O)CC[C@H](NC(=O)CCCCCCCCCCCCCCCCC(=O)O)C(=O)O)NC(=O)C(C)(C)NC(=O)[C@@H](NC(=O)[C@H](CO)NC(=O)[C@H](CC(C)C)NC(=O)[C@H](CC(=O)O)NC(=O)[C@H](CO)NC(=O)[C@@H](NC(=O)[C@H](Cc1ccccc1)NC(=O)[C@@H](NC(=O)CNC(=O)[C@H](CCC(=O)O)NC(=O)C(C)(C)NC(=O)[C@@H](N)Cc1ccc(O)cc1)[C@@H](C)O)[C@@H](C)CC)[C@@H](C)CC)[C@@H](C)CC)C(=O)N[C@@H](CCC(=O)O)C(=O)N[C@@H](Cc1c[nH]c2ccccc12)C(=O)N[C@@H](CC(C)C)C(=O)N[C@@H](CC(C)(C)C)C(=O)N[C@@H](C)C(=O)N[C@@H](CCC(N)=O)C(=O)NCC(=O)N1CCC[C@H]1C(=O)N[C@@H](CO)C(=O)N[C@@H](CO)C(=O)NCC(=O)N[C@@H](C)C(=O)N1CCC[C@H]1C(=O)N1CCC[C@H]1C(=O)N1CCC[C@H]1C(=O)N[C@@H](CO)C(N)=O
B1: in series [5], the “EC50 hGIPR 0% HSA (cAMP, HEK-293)” value was determined as 0.22 pM and the “EC50 hGIPR 0.1% BSA (cAMP, HEK-293)” value came to 64.4 pM.
